According to US8623832B2, “Peptide compositions that bind TLR-4” (The Board of Regents of the University of Oklahoma, priority 2011, dated 2014):

What was measured:
[1] = system: primary adult baboon lung DCs and fetal baboon lung DC-precursor cells; assay: Phagocytosis of pHrodo-labeled E. coli bioparticles by primary baboon lung DCs / fetal DC-precursor cells; assay type: cell-based
Experimental: Freshly collected lobe of the lung or whole lung samples of adult and fetal baboons were transported on ice in RPMI 1640 medium containing 2 mM glutamine, 1 mM HEPES, 10 μg/ml gentamicin, 100 U/ml penicillin, 100 μg/ml streptomycin and 10% FBS. After a mild mechanical disruption, the single cell suspension was seeded in a tissue culture flask (Nalge-Nunc International Corp, NY) at a density of 30-50×10^6 leukocytes/175 cm^2 flask in RPMI 1640 medium containing 2 mM glutamine, 1 mM HEPES, 10 μg/ml gentamicin, 100 U/ml penicillin, 100 μg/ml streptomycin and 10% FBS. The light-density DC-populations were harvested using OptiPrep cell-separation solution (density 1.32 g/ml, Accurate Chemicals, NY) (Awasthi and Cooper, 2006; Awasthi et al., 2009). The immunophenotype and basic characteristics of the lung DC-population isolated from fetal and adult baboons have been described earlier (Awasthi et al., 2009). Here, first the immunophenotype of KG-1-derived DCs and fetal baboon lung DC-precursors or adult baboon lung DCs were compared by flow cytometry. Briefly, cells were suspended in Dulbecco's phosphate buffered saline (DPBS) containing 1% FBS and 0.09% sodium azide and incubated with fluorochrome-conjugated antibodies to HLA-DP, DQ, DR, CD11c, CD40, CD80, CD86 (typical DC-markers) as described earlier.
After confirming that the fluorescence is of phagocytosed bioparticles, comprehensive experiments were performed in presence and absence of effector molecules (SP-A and TLR4-MD2 proteins). […] The fluorescence readings were taken at 550 nm excitation and 600 nm emission wavelengths using SpectraMax M2 spectrofluorometer (Molecular Devices, CA).
The phagocytosis index was calculated by subtracting the average fluorescence intensity of the reaction with bioparticles alone from the control (basal without any effector molecules) and experimental wells. Finally, the percent effect was calculated using the following formula: % effect=(Net experimental phagocytosis/Net basal phagocytosis)×100%

recombinant MD2 protein = molecular target: T1, recombinant MD2 protein (Homo sapiens, UniProt Q9Y6Y9); assay: Microwell-based binding to immobilized recombinant MD2 protein; conditions: 0.25 μg MD2 per well
T1 construct: human MD-2 (mature region, Glu 17-Asn 160 amino acids); 10x histidine tag (C); signal peptide from human CD33 (N); purchased R&D Systems, MN; host or cells: mouse myeloma cell line NS0
T1 sequence (Q9Y6Y9 17-160): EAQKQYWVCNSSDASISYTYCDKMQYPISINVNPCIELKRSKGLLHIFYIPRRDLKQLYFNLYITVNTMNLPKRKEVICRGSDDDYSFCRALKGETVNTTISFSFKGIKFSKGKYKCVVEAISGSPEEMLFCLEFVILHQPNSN
Excerpt: Interaction between purified baboon lung SP-A, SP-A-peptides and TLR4-MD2 proteins using a microwell-based method: The binding between the purified baboon lung SP-A, SP-A-peptides and recombinant TLR4-MD2 and MD2 proteins was studied in vitro using a microwell-based method (Awasthi et al., 2004). The soluble, recombinant TLR4-MD2 protein (R&D Systems, MN) consisted of a mixture of recombinant human-TLR4 and MD2 proteins. The recombinant extracellular domain of human TLR4 protein (Glu 24-Lys 631 amino acids), was joined with a DNA sequence encoding the signal peptide from human CD33 and a 10× histidine tag at the C-terminus (Accession # O00206). For MD2 protein, a DNA sequence encoding the signal peptide from human CD33 was joined with the mature region of human MD-2 (mature region, Glu 17-Asn 160 amino acids) and a 10× histidine tag at the C-terminus (Accession # Q9Y6Y9). […]
For the binding assay, microwell ultra-high-protein binding Immunolon 4HBX strips (Thermo Scientific, MA) were coated with soluble recombinant-TLR4-MD2 protein or MD2 protein (R&D Systems, 250 ng per well, diluted in 0.1 M NaHCO3, pH 9.6) overnight at room temperature. […] The immune-complex was detected using 3,3′,5,5′-tetramethylbenzidine (TMB) substrate system (Sigma-Aldrich, MO). The reaction was stopped with 2 N H2SO4 and read at 405 and/or 450 nm spectrophotometrically (Molecular Devices, CA).

Q: “SP-A: native surfactant protein-A purified from bronchioalveolar lavage fluid of a normal healthy adult baboon (MWLCPLALTLTLMAASGAACEVKDVCVGSPGIPGTPGSHGLPGRDGRDGVKGDPGPP; listed as Papio cynocephalus)” was tested. Which “phagocytic uptake of E. coli” value ([1]; SP-A 2 μM, TLR4-MD2 0.3 μM) did it give?
A: increased

Q: And the “phagocytic uptake of E. coli when SP-A and TLR4-MD2 proteins were added together” value ([1]; uptake remained increased versus basal)?
A: no additive effect

Q: And the “binding to surface-bound MD2 protein” value (recombinant MD2 protein)?
A: found to bind
